Results from patent US20250082656A1, “DOSAGE REGIMENS FOR TREATMENT OF DENGUE INFECTION” (Atea Pharmaceuticals, Inc., priority 2022, published 2025).
In brackets after ≈: the same amount, converted by molar mass.

Legend:
[1] = Cardiomyocyte cytotoxicity assay (CellTiter Glo); conditions: human, human iPS cardiomyocytes
[2] = Cytotoxicity in uninfected Huh-7 cells; conditions: human, Huh-7 cells, uninfected
[3] = test system: Respiratory syncytial virus; experiment: Antiviral specificity panel, RSV; type: cell-based; conditions: human respiratory syncytial virus, HEp-2; RNA virus, HEp2
[4] = Bone marrow progenitor cell assay, erythroid (E); conditions: human, erythroid (E) human bone marrow progenitor cells
Dengue-2 (DENV-2) = experiment: Virus yield reduction (VYR) assay, DENV-2; type: cell-based
DENV1 NS5 [5] = molecular target: T1, DENV1 NS5 (Dengue virus type 1, UniProt P17763); experiment: Thermal shift assay, DENV1 NS5; conditions: read-out: ΔTM
T1 sequence (P17763 2494-3392): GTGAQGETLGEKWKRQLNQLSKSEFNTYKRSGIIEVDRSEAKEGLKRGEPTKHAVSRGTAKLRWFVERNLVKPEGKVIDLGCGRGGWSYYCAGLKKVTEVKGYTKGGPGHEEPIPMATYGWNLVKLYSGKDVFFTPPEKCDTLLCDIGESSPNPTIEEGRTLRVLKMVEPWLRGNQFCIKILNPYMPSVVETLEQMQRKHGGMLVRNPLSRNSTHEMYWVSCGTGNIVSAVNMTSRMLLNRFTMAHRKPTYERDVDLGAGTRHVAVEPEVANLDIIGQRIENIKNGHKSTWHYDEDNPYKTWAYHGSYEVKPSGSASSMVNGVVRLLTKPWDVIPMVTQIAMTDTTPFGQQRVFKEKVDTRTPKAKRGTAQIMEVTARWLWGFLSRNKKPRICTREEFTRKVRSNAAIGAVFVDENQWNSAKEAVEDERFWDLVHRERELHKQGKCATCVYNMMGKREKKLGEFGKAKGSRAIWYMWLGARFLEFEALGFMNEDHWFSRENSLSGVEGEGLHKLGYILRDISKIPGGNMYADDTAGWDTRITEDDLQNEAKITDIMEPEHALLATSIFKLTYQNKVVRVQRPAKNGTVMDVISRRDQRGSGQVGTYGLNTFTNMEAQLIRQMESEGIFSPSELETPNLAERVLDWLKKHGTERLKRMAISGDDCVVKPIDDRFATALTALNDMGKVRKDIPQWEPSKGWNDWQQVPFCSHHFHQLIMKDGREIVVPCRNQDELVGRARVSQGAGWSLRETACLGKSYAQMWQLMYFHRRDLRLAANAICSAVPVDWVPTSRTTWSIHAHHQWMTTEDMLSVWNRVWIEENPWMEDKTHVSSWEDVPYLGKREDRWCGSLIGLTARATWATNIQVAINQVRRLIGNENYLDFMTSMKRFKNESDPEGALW

DENV1 NS5 [6] = molecular target: T1, DENV1 NS5; experiment: Nucleotide analogue incorporation / discrimination assay, DENV1 NS5; type: biochemical; conditions: GTP for AT-9010 and AT-9002, UTP for SOF-TP
Procedure: The chain-terminating efficiency of Compound 5 was measured in competitive nucleotide incorporation assays using all four DENV serotypes. […] In comparison, sofosbuvir triphosphate is incorporated into the RNA less than 1 time for every 100 UTP (native uridine triphosphate) incorporations.
Measurements and quantitations were as in FIG. 19B.
DENV NS5 was pre-incubated with the annealed P10/T20 RNA in an assembly buffer containing 20 mM HEPES pH 7.5, 10% glycerol, 5 mM MgCl2, and 5 mM DTT for 10 min at 30° C. to create an active RNA elongation complex.
Reactions were started by adding AT-9010 with either all four NTPs or UTP, ATP, and CTP only.
Single nucleotide incorporation was tested as follows. Reactions were started by adding the corresponding NTP or analogue. Final concentrations were 1 μM NS5, 0.25 μM P10/T20, 100 μM NTP or analogue in a final buffer containing 20 mM HEPES pH 7.5, 15% glycerol, 5 mM MgCl2, and 5 mM DTT.
Reactions were quenched at the designated time points in 3× volume FBD stop solution (formamide, 10 mM EDTA) and analyzed on 20% acrylamide-bisacrylamide (19:1) […] sequencing gels. RNA products were visualized using a Typhoon FluorImager then analyzed and quantified using ImageQuant software.

Row | SMILES | CC50 at 3 days [1] [µM] | CC50 [2] [µM] | EC50 [3] [µM] | CC50 at 14 days [4] [µM] | EC50 (Dengue-2 (DENV-2); DENV2, BHK-21) [µM] | EC50 (Dengue-2 (DENV-2); DENV2, Huh-7) [µM] | EC90 (Dengue-2 (DENV-2); DENV2, read-out: EC90 against Dengue serotype 2) [µg/mL] | ΔTm at 100 µM (DENV1 NS5 [5]) [°C] | Preference (discrimination) native nucleotide > analogue (DENV1 NS5 [6])
1 | CNc1nc(N)nc2c1ncn2[C@@H]1O[C@H](CO[P@](=O)(N[C@@H](C)C(=O)OC(C)C)Oc2ccccc2)[C@@H](O)[C@@]1(C)F [Compound 1, isopropyl ((R)-(((2R,3R,4R,5R)-5-(2-amino-6-(methylamino)-9H-purin-9-yl)-4-fluoro-3-hydroxy-4-methyltetrahydrofuran-2-yl)methoxy)(phenoxy)phosphoryl)-L-alaninate] | > 100 | > 100 | > 100 | > 100 | 6.5 | 0.64 | ~0.2 (≈ 0.344 µM) |  | 
2 | C[C@@]1(F)[C@H](O)[C@@H](COP(=O)(O)OP(=O)(O)OP(=O)(O)O)O[C@H]1n1cnc2c(=O)[nH]c(N)nc21 [Compound 5] |  |  |  |  |  |  |  | 6.1 ± 0.1 | 7.7 ± 0.5
